Results from US20020119496A1, “Nuclear magnetic resonance screening method” (priority 2000, published 2002).

Molecular target: T1, human muscle fatty acid binding protein M-FABP (Homo sapiens, UniProt P05413)
T1 construct: a plasmid containing the gene coding for a 143 amino acid protein construct of M-FABP; His-tag (C); made in house; host or cells: prototrophic Escherichia coli
Test: Site-selective NMR screening, 1H-15N fHSQC of 13C'-Val, 15N-Ala labeled M-FABP
Conditions: 1:1 mixture with M-FABP, 200 μM protein
Method: The spectra were recorded at 20° C. on a 600 MHz Varian Unity INOVA NMR spectrometer using standard techniques. The sample was prepared in 20 mM sodium phosphate buffer (10% D2O/90% H2O) pH 7.4 containing 50 mM NaCl, 10 mM DTT and 0.02% NaN3. […] (a) 2D ^1H-^15N fast-HSQC (Mori et al., 1995), (b) 2D HNCO and (c) 1D HNCO. […] Experimental times were 1 hour, 4 hours, and 20 minutes respectively.
Experimental conditions were identical to those described in FIG. 8 except the samples used for spectra b-d contained additionally 1% d-DMSO. (a-d) Reference spectrum of free M-FABP. (b) 1:1 mixture of M-FABP and compound cocktail. (c) 1:1 mixture M-FABP and compound cocktail omitting oleic acid. (d) 1:1 mixture of M-FABP and oleic acid.

T1 sequence (P05413 whole entry): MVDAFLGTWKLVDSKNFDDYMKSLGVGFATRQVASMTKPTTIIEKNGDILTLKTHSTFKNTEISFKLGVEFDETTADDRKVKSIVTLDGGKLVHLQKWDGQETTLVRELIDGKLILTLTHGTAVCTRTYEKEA

CCCCCCCC/C=C\CCCCCCCC(=O)O [oleic acid]
chemical shift change of alanine 33 HSQC cross peak: chemical shift change is observed
